Test results reported in patent US7371841B2, “Methods of modulating cold sensory perception” (Regents of the University of California, priority 2002, dated 2008).
Read-outs that look alike come from different tables or passages of the source. One block for each compound: values may come before it.

Tests used:
trigeminal neurons [1] = assay: Whole-cell patch-clamp recordings of dissociated trigeminal neurons; assay type: cell-based, rat; conditions: for membrane currents elicited in trigeminal neurons: compared to an equivalent dose of menthol
Experimental: Trigeminal ganglia were removed from newborn S/D rats, placed in ice-cold culture medium (MEM Eagle's with Earle's BSS supplemented with 10% horse serum, vitamins, penicillin/streptomycin and L-glutamine), cleaned of connective tissue/blood vessels and diced into 4-5 pieces. Ganglia were then transferred to 0.125% collagenase P (Boehringer) solution in CMF Hank's, shaken gently at 37° C. for 20 (P0 animals) to 30 min (P4 animals), pelleted, and resuspended in 0.05% STV at 37° C. for 2 min. Culture medium was added to inhibit enzymatic activity and ganglia were triturated gently with a fire-polished Pasteur pipette. Neurons were enriched by density gradient centrifugation as described (see, e.g., Eckert et al., J. Neurosci. Methods 77:183-90, 1997). Cells were resuspended in complete culture medium (MEM Eagle's/Earle's BSS with 10% horse serum, vitamins, penicillin/streptomycin, L-glutamine and 100 ng/ml NGF 7S (Invitrogen) and plated onto glass coverslips coated with PLO (1 mg/ml, Sigma) and laminin (5 μg/ml, Invitrogen). Cultures were maintained at 37° C. in 5% CO2 and examined 1-2 days after plating. Ca^2+ microfluorimetry was carried out as described (Caterina et al., Nature 389:816-24 (1997)). For cell selection prior to patch-clamp analysis, CaCl2 and pluronic acid were omitted from the loading buffer (nominally Ca^2+-free CIB). Cells in the recording chamber were perfused by gravity using the VC-6 valve control system (Warner Inst.).
Trigeminal neurons responding to […] menthol with an increase in intracellular Ca2+ were selected for patch-clamp recordings. HEK293 cells were cultured in DMEM with 10% fetal bovine serum and co-transfected (Lipofectamine 2000, Invitrogen) with 1 μg CMR1 plasmid and 0.1 μg enhanced green fluorescence reporter plasmid to identify transfected cells. Cells were plated onto PLO-coated coverslips the next day and examined two days after transfection. Gigaseals were formed with pipettes (Garner Glass type 7052, ID 1.1, OD 1.5) having a resistance of 3-5 MΩ in standard pipette solution. Whole-cell voltage clamp was performed at a holding potential of −60 mV with a 200 ms voltage ramp from −120 mV to +80 mV at 3.6 Hz. Data were acquired using Pulse-Pulsefit (HEKA GmbH) software. Recordings were filtered at 5 kHz and sampled at 20 kHz. Pipette solution for neuronal experiments contained (in mM) 140 CsCl, 1 EGTA, 0.6 MgCl2, 10 HEPES, pH 7.4 (adjusted with CsOH). Standard Ca^2+-free bath solution for whole-cell recordings contained (in mM) 140 NaCl, 4 KCl, 2 MgCl2, 100 nM TTX (Sigma), 10 TRIS, pH 7.4 (adjusted with HCl) with or without 100 nM dendrotoxin I (Sigma). For ion replacement experiments, pipette solution contained (in mM) 140 KCl, 5 CsCl, 1 EGTA, 0.6 MgCl2, 1 4-aminopyridine, 10 HEPES, pH 7.4 (adjusted with KOH). Bath solution contained (in mM) 140 NaCl, 4 KCl, 2 MgCl2, 100 nM TTX, 100 nM dendrotoxin I, 100 nM apamine (Sigma), 100 nM carybdotoxin (Sigma), 1 μω-conotoxin MVIIC, 1 μM GVIA (Latoxan), 10 TRIS, pH 7.4 (adjusted with HCl). For monovalent cation permeability experiments perfusate contained (in mM) 140 NaCl (or 140 KCl or 140 NMDG), 100 nM TTX, 1 μM nitrendipine (Sigma), 10 HEPES, 10 glucose, pH 7.4 (adjusted with NaOH, KOH or HCl, respectively). For divalent cation permeability experiments perfusate contained (in mM) 125 NMDG, 10 CaCl2, 100 nM TTX, 1 μM nitrendipine, 10 HEPES, 10 glucose, pH 7.4 (adjusted with HCl). […]

CMR1 [2] = target: T1, CMR1 (Rattus norvegicus, UniProt Q8R455, N449H); assay: Two-electrode voltage-clamp of Xenopus oocytes expressing the cloned cold/menthol receptor; assay type: cell-based; set-up: open reading frame of 3312 bp that is predicted to encode a protein of 1104 amino acids; expressed in transfected cells; host or cells: Xenopus laevis oocytes (cRNA injection); conditions: for electrophysiological response of receptor-expressing oocytes: menthone, camphor, cyclohexanol applied near limits of solubility (>500 μM); for EC50: room temperature, voltage clamp at -60 mV
T1 sequence (Q8R455 whole entry N449H): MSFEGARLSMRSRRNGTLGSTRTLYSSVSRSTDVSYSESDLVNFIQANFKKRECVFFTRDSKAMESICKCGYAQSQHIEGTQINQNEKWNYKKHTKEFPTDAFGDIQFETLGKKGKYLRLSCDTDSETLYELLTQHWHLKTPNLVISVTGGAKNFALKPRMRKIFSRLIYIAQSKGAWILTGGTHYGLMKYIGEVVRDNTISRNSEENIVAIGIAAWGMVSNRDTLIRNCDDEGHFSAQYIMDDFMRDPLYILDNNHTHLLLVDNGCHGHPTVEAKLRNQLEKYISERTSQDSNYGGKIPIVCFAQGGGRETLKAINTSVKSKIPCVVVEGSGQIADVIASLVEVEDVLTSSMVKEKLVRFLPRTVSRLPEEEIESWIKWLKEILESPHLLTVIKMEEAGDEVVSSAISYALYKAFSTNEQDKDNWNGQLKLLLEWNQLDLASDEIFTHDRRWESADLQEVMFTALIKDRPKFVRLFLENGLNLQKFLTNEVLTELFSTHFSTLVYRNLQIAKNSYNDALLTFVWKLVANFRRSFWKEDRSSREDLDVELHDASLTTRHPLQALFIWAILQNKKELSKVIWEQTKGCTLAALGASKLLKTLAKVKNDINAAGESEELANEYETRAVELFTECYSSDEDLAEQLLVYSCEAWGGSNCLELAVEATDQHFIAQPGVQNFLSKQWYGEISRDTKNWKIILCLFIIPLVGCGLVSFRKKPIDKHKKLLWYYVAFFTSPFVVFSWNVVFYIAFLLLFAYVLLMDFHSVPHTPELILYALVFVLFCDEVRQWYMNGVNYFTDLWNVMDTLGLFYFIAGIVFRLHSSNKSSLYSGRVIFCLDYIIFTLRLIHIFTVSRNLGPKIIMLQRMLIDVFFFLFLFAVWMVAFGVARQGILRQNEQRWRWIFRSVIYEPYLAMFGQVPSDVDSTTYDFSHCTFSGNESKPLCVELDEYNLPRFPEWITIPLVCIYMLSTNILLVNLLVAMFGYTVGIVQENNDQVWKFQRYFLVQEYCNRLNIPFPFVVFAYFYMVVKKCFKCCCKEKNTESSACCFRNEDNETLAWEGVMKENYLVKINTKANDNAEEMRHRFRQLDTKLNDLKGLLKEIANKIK
Experimental: cRNA transcripts were synthesized and injected into Xenopus laevis oocytes as described (Brake, supra). Two-electrode voltage-clamp recordings were performed 2-7 days post-injection. Dose-response curves for cooling compounds were performed at room temperature (22-24° C.). AG-3-5 (icilin) was provided by Dr. E. Wei, University of California, Berkeley. Temperature ramps were generated by heating (˜35° C.) or cooling (˜4° C.) the perfusate in a Harvard coil and monitoring temperature changes with a thermister placed near the oocyte.

CMR1 [3] = target: T1, CMR1; assay: Whole-cell patch-clamp of CMR1-transfected HEK293 cells; assay type: cell-based; set-up: open reading frame of 3312 bp that is predicted to encode a protein of 1104 amino acids; expressed in transfected cells
Experimental: Trigeminal neurons responding to […] menthol with an increase in intracellular Ca2+ were selected for patch-clamp recordings. HEK293 cells were cultured in DMEM with 10% fetal bovine serum and co-transfected (Lipofectamine 2000, Invitrogen) with 1 μg CMR1 plasmid and 0.1 μg enhanced green fluorescence reporter plasmid to identify transfected cells. Cells were plated onto PLO-coated coverslips the next day and examined two days after transfection. Gigaseals were formed with pipettes (Garner Glass type 7052, ID 1.1, OD 1.5) having a resistance of 3-5 MΩ in standard pipette solution. Whole-cell voltage clamp was performed at a holding potential of −60 mV with a 200 ms voltage ramp from −120 mV to +80 mV at 3.6 Hz. Data were acquired using Pulse-Pulsefit (HEKA GmbH) software. Recordings were filtered at 5 kHz and sampled at 20 kHz. Pipette solution for neuronal experiments contained (in mM) 140 CsCl, 1 EGTA, 0.6 MgCl2, 10 HEPES, pH 7.4 (adjusted with CsOH). Standard Ca^2+-free bath solution for whole-cell recordings contained (in mM) 140 NaCl, 4 KCl, 2 MgCl2, 100 nM TTX (Sigma), 10 TRIS, pH 7.4 (adjusted with HCl) with or without 100 nM dendrotoxin I (Sigma). For ion replacement experiments, pipette solution contained (in mM) 140 KCl, 5 CsCl, 1 EGTA, 0.6 MgCl2, 1 4-aminopyridine, 10 HEPES, pH 7.4 (adjusted with KOH). Bath solution contained (in mM) 140 NaCl, 4 KCl, 2 MgCl2, 100 nM TTX, 100 nM dendrotoxin I, 100 nM apamine (Sigma), 100 nM carybdotoxin (Sigma), 1 μω-conotoxin MVIIC, 1 μM GVIA (Latoxan), 10 TRIS, pH 7.4 (adjusted with HCl). For monovalent cation permeability experiments perfusate contained (in mM) 140 NaCl (or 140 KCl or 140 NMDG), 100 nM TTX, 1 μM nitrendipine (Sigma), 10 HEPES, 10 glucose, pH 7.4 (adjusted with NaOH, KOH or HCl, respectively). For divalent cation permeability experiments perfusate contained (in mM) 125 NMDG, 10 CaCl2, 100 nM TTX, 1 μM nitrendipine, 10 HEPES, 10 glucose, pH 7.4 (adjusted with HCl). […] Bath solution for on-cell single channel experiments contained (in mM): 150 NaCl, 1 MgCl2, 10 TRIS. Pipette solution for on-cell single channel experiments contained (in mM): 150 NaCl, 1 MgCl2, 0.1 EGTA, 10 TRIS and 5 or 25 μM menthol. Recordings were performed at 22° C. unless noted otherwise. Temperature ramps were generated by cooling or heating the perfusate in a jacketed coil (Harvard Inst.) connected to a thermostat. Temperature in the proximity of the patched cell was measured using a miniature thermocouple (type MT-29/2, Physitemp) and sampled using an ITC-18 A/D board (Instrutech) and Pulse software. Permeability ratios for monovalent cations to Na (PX/PNa) were calculated according to: PX/PNa=exp(ΔErev(Na-X)F/RT), where ΔErev(Na-X) equals the reversal potential change, F the Faraday's constant, R the universal gas constant and T the absolute temperature. For measurements of Ca^2+ permeability PCa/PNa was calculated according to Lewis, C. A. J. Physiol. 286:417-45, 1979, (equation A6).

trigeminal neurons [4] = assay: Calcium imaging (Fura-2) of dissociated trigeminal neurons; assay type: cell-based, rat; conditions: capsaicin 1 μM
Experimental: Trigeminal ganglia were removed from newborn S/D rats, placed in ice-cold culture medium (MEM Eagle's with Earle's BSS supplemented with 10% horse serum, vitamins, penicillin/streptomycin and L-glutamine), cleaned of connective tissue/blood vessels and diced into 4-5 pieces. Ganglia were then transferred to 0.125% collagenase P (Boehringer) solution in CMF Hank's, shaken gently at 37° C. for 20 (P0 animals) to 30 min (P4 animals), pelleted, and resuspended in 0.05% STV at 37° C. for 2 min. Culture medium was added to inhibit enzymatic activity and ganglia were triturated gently with a fire-polished Pasteur pipette. Neurons were enriched by density gradient centrifugation as described (see, e.g., Eckert et al., J. Neurosci. Methods 77:183-90, 1997). […]

[5] = normalized to 500 μM menthol, read-out: EC50 of evoked membrane currents

SMILES: CC1CCC(C(C)C)C(O)C1 (stereo not shown) [menthol]
thermal threshold of cold-evoked currents in the presence of the compound (trigeminal neurons [1]; 10 μM menthol, threshold without menthol 27.1±0.5° C., n=4): 29.6±0.3 °C
EC50 (trigeminal neurons [1]; Rattus norvegicus, Neuron, room temperature, Vhold=-60 mV, currents normalized to 1 mM menthol, read-out: half-maximal effective concentration (EC50) of evoked inward currents): 80 ± 2.4 µM
Hill coefficient (η) (trigeminal neurons [1]; fit of concentration-response data to the Hill equation): 2.2
electrophysiological response of receptor-expressing oocytes (CMR1 [2]): Robust responses
EC50 (CMR1 [2]; [5]): 66.7 ± 3.3 µM
saturation temperature of cold-activated currents in the presence of the compound (CMR1 [2]; sub-activating menthol (20 mM printed), without menthol 8.2±0.3° C., n=7): 15.6±0.4 °C
threshold temperature of cold-activated currents in the presence of the compound (CMR1 [2]; sub-activating menthol (20 mM printed), without menthol 25.8±0.4° C., n=7): 29.7±0.3 °C
desensitization: decrease in peak current between first and second application (CMR1 [3]; 2.5 mM extracellular Ca2+, n=3): 53.9±1.7%
desensitization: decrease in peak current between first and second application (CMR1 [3]; nominally calcium-free bath solution, n=3): 9.1±7%
effect on cold-evoked currents (CMR1 [3]; sub-activating dose 10 μM menthol): markedly potentiated

SMILES: CC(C)[C@@H]1CC[C@@H](C)CC1=O [menthone]
membrane currents elicited in trigeminal neurons (trigeminal neurons [1]): very small currents

SMILES: OC1CCCCC1 [cyclohexanol]
membrane currents elicited in trigeminal neurons (trigeminal neurons [1]): no effect

Second part, led by results:

electrophysiological response of receptor-expressing oocytes (CMR1 [2]): did not elicit responses
SMILES: COc1cc(CNC(=O)CCCC/C=C/C(C)C)ccc1O [capsaicin]
fraction of menthol/cold-sensitive neurons also activated (trigeminal neurons [4]): 54.5±6.1%

efficacy compared to menthol (CMR1 [2]): ~2.5 fold
electrophysiological response of receptor-expressing oocytes (CMR1 [2]): Robust responses
potency relative to menthol (CMR1 [2]; ratio of EC50 values): ~200 fold
EC50 (CMR1 [2]; [5]): 0.36 ± 0.03 µM
activity in the absence of extracellular calcium (CMR1 [3]; no extracellular calcium): essentially inactive
SMILES: O=C1NC(c2cccc([N+](=O)[O-])c2)=CCN1c1ccccc1O [icilin]
desensitization of evoked currents relative to peak currents (CMR1 [3]; 20 s after application, n=3): 78.8±17%

EC50 (CMR1 [2]; read-out: potency (EC50) of evoked membrane currents): 3400 ± 400 µM
SMILES: CC12CCC(CC1)C(C)(C)O2 [Eucalyptol]

electrophysiological response of receptor-expressing oocytes (CMR1 [2]): little or no effect
SMILES: CC12CCC(CC1=O)C2(C)C (stereo not shown) [camphor]
